Data published in publication PMC11513854, “De novo GTP synthesis is a metabolic vulnerability for the interception of brain metastases” (Cell Reports Medicine, 2024).
pIC50: −log10 of the molar value.

Assays:
[1] = test system: MDR1; assay: Bi-directional permeability via MDR1-MDCKII cells; format: in vitro ADME; details: dog, MDCK-MDR1, pH 7.4; 2 μM (digoxin 10 μM), 2.5 h
Method: (§1) MDR1-MDCKII permeability assays were performed by Wuxi AppTec Co. Briefly, MDR1-MDCK1 cells were seeded onto polycarbonate membranes in 96-well insert system plates and allowed to develop into monolayers. […] The plate was incubated for 2.5 h (37°C, 5% CO2) and the media was sampled on either side and the compound present was quantified by LC-MS/MS and the concentrations were used to calculate the efflux ratio. Digoxin (10 μM), nadolol (2 μM), and metoprolol (2 μM) were used as controls.

[2] = test system: MDR1-MDCKII cells; assay: Bi-directional permeability via MDR1-MDCKII cells; format: in vitro ADME
Method: as §1

[3] = test system: BT478 and BT530 tumor cells; assay: Dose-response with exogenous guanine supplementation; format: cell-based, human; details: guanine 12 μM in culture media
Source text: Created with BioRender.com. […] Comparisons were made via a two-tailed unpaired t test, n = 4 technical replicates, p value is indicated. N.s., not significant, ∗∗∗∗ = p < 0.0001. […] Comparisons were made via a two-tailed unpaired t test, n = 4 technical replicates. N.s., not significant. […] Data are presented as mean ± SD from 4 technical replicates. (E) Immunoblot confirmation of IMPDH (IMPDH1 + IMPDH2) knockout (KO) in patient-derived lung-BMICs. Cropped from single full blot. (F) Time-course proliferation assays of AAVS1 and IMPDH KO BT478 and BT530 cells. Comparisons were made via a two-tailed unpaired t test. Data are presented as mean ± SD from 4 technical replicates, ∗∗∗∗ = p < 0.0001. (G) Representative bar graphs depicting the sphere count per 200 cells of AAVS1 vs. IMPDH KO cells. Comparisons were made via a two-tailed unpaired t test, data are presented as mean ± SD from 4 technical replicates, ∗∗∗∗ = p < 0.0001. (H) Kaplan-Meier curves showing the overall survival probability (from primary cancer diagnosis to death) in a cohort of 30 patients with lung carcinoma who developed BM, for IMPDH2 very high vs. very low expression (1st and 3rd quartiles cutoff values: <114.86 and >210.74). The Cox regression model for survival analysis was used, p values (p) are shown. […]

[4] = test system: lung-BMIC line (BT478); assay: Dose-response assay, PrestoBlue; format: cell-based, human; details: for pIC50: Homo sapiens, BT478, 72-h treatment, PrestoBlue, N/A, not applicable, read-out: Lung-BM IC50
Method: For preliminary drug screening, drugs were plated at a concentration of 10 μM in a 96-well plate, in triplicate at a density of 1000 cells/well, and incubated at 37°C with a humidified atmosphere of 5% CO2 for three days. Vehicle controls for cell death are used in each functional experiment. Following treatment, PrestoBlue (20 μL, Invitrogen), a resazurin-based cell viability reagent and fluorescence indicator of cell metabolism, was added to each well to estimate proliferation approximately 2 h prior to measuring fluorescence intensity via FLUOstar Omega Fluorescence 556 Microplate reader (BMG LABTECH) at an excitation and emission wavelength of 540 nm and 590 nm, respectively. Results were analyzed using Omega analysis software.
Dose-response assays were conducted using the same protocol apart from drugs being plated using 2-fold serial dilutions (20 μM - 39 nM) as previously described.[66] The half maximal inhibitory concentration (IC50) is determined by plotting percent cell viability by the logarithmic concentration of drug. IC80 concentrations will be used for subsequent functional assays (cell proliferation, sphere formation), as determined by the following formula: ICF=100−F/F^1/H×IC50 where F = fraction of maximal response and H = hill slope.

[5] = test system: de novo GTP synthesis pathway; assay: LC-MS metabolomics profiling; format: cell-based, human; details: IC80, 6 h; for GDP and GTP levels: BT478, BT530; for AICAR levels: b56: accumulates in only some conditions
Method: Metabolites were extracted with a solution of cold acetonitrile/methanol/water (2:2:1) from the cell pellets and protein precipitation was performed by three cycles of freeze/thawing and sonication. The LC-MS metabolomics analysis was performed as previously described.[75] Briefly, a UHPLC-MS system consisting of an Agilent 6550 qToF coupled to an Agilent 1290 binary pump UHPLC system was used. The source parameters were as follows: Gas temperature, 150 °C at 14 L/min and 45 psig; Sheath gas temperature, 325 °C at 12 L/min; Capillary and nozzle voltages were set to −2.0 kV iFunnel conditions were changed from default to-30 V DC, High pressure funnel drop −100 V and RF voltage of 110 V, low pressure funnel drop −50 V and RF voltage of 60 V. Chromatographic separation was achieved by ion-paired chromatography. In brief, […] of each sample was injected onto Agilent ZORBAX Extend-C18 (150 mm 3 2.1 mm i.d.; 1.8 mm) column using tributylamine (TBA) as an ion paring agent (solvent A: 3% methanol, 97% water 10 mM TBA, 15 mM Acetic acid, solvent B: 100% methanol). The linear gradient employed was as follows: 0–2.5 min 99% A, 2.5–7.5 min decrease to 80% A, 7.5–13 min to 55% B and finally 13–15 min to 99% B and held for 1 min. The column was re-generated for 2 min at 1% B. The flow rate was set to […]. The column temperature was maintained at 25°C. Skyline was used for data processing of metabolites in our library of standards using known retention times and MS/MS spectra. Integrated peak areas for the metabolites was exported for further statistical and metabolite enrichment analysis by using online MetaboAnalyst (https://www.metaboanalyst.ca/).

[6] = Brain homogenate binding, equilibrium dialysis; format: in vitro ADME, mouse; details: 2 μM, 4 h, 37°C
Method: The samples were applied to a dialysis well plate and sealed with dialysis membrane. Dialysis buffer (100 mM sodium phosphate pH 7.4, 150 mM NaCl) was applied to opposite side of the membrane (receiver well of the plate), and samples were incubated at 37°C with 5% CO2 for 4 h. Following completion of incubation period, samples were recovered from each side of the dialysis membrane and processed by protein precipitation, and analysis by LC-MS/MS for compound concentration. A corresponding set of samples was also prepared and stop solution (acetonitrile containing 200 ng/mL tolbutamide and 200 ng/mL labetalol) was immediately added, and samples were obtained from each side of the dialysis plate for mass spectrometric analysis.

SMILES | Papp A→B at 2.5 h, 2 μM [1] [×10⁻⁶ cm/s] | Papp B→A at 2.5 h, 2 μM [1] [×10⁻⁶ cm/s] | efflux ratio at 2.5 h, 2 μM [1] | Rank of Papp [2] | permeability for entering the brain ([2]; MDCK-MDR1 cell monolayer model) | substrate for P-glycoprotein (ABCB1) ([2]; MDCK-MDR1 cell monolayer model) | BMIC viability with exogenous guanine supplementation [3] | selectivity for BMICs compared to normal brain cells ([4]; BT478, MDA-MB-231 Br, BT673 vs neural stem cells, 72 h) | pIC50 [4] | GDP and GTP levels [5] | levels of dihydroorotic acid [5] | AICAR levels [5] | % Bound [6] | % Unbound [6] | mass of compound following completion of the brain homogenate assay [6]
COc1c(C)c2c(c(O)c1C/C=C(\C)CCC(=O)OCCN1CCCC1)C(=O)OC2 [Compound 3] | 14.8 | 12.5 | 0.848 | High | high permeability | not significant substrates | rescued BMIC viability | retained MPA’s therapeutic window | 4.82 | significantly reduced | did not influence | accumulate | Not Recover ed | Not Recover ed | could not be detected
COc1c(C)c2c(c(O)c1C/C=C(\C)CCC(=O)O)C(=O)OC2 [MPA, Mycophenolic acid] | 26 | 10 |  |  |  | not significant substrates | rescued BMIC viability |  | 5.44 | significantly reduced | did not influence | accumulate |  | 34.1% | 
